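Each compound was tested at five concentrations against cells in 96-well plates for 48 hours. Here, GI50 denotes the concentration required for 50% inhibition of growth. TGI: concentration producing complete growth inhibition.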
Legend:
Assay in all cases: DTP human tumour cell line panel, 48 h
[1] = tested on: A549 NSCLC
[2] = tested on: OVCAR-5 ovarian
[3] = tested on: SNB-75 CNS
[4] = tested on: SK-MEL-2 melanoma
[5] = tested on: A498 renal
[6] = tested on: HCT-116 colon
[7] = tested on: BT-549 breast
[8] = tested on: COLO 205 colon
[9] = tested on: OVCAR-4 ovarian
[10] = tested on: OVCAR-3 ovarian
[11] = tested on: SF-539 CNS
[12] = tested on: HCT-15 colon
[13] = tested on: NCI/ADR-RES ovarian
[14] = tested on: M14 melanoma
[15] = tested on: T-47D breast
[16] = tested on: DU-145 prostate
[17] = tested on: MALME-3M melanoma
[18] = tested on: MCF7 breast
[19] = tested on: SN12C renal
[20] = tested on: HCC-2998 colon
[21] = tested on: MDA-MB-435
[22] = tested on: NCI-H23 lung
[23] = tested on: U251 CNS
[24] = tested on: EKVX NSCLC
[25] = tested on: PC-3 prostate
[26] = tested on: K-562 leukemia
[27] = tested on: NCI-H522 lung
[28] = tested on: LOX IMVI melanoma
[29] = tested on: TK-10 renal
[30] = tested on: CAKI-1 renal
[31] = tested on: SW-620 colon
[32] = tested on: UACC-257 melanoma
[33] = tested on: 786-0 renal
[34] = tested on: IGROV1 ovarian
[35] = tested on: MDA-MB-231 breast
[36] = tested on: NCI-H460 lung
[37] = tested on: SK-OV-3 ovarian
[38] = tested on: HS 578T breast
[39] = tested on: ACHN renal
[40] = tested on: HT29 colon
[41] = tested on: HOP-62 NSCLC
[42] = tested on: UACC-62 melanoma
[43] = tested on: SF-268 CNS
[44] = tested on: NCI-H226 lung
[45] = tested on: MOLT-4 leukemia
[46] = tested on: SK-MEL-28 melanoma
[47] = tested on: SF-295 CNS
[48] = tested on: SK-MEL-5 melanoma
[49] = tested on: UO-31 renal
[50] = tested on: SNB-19 CNS
[51] = tested on: KM12 colon
[52] = tested on: OVCAR-8 ovarian

Compound `CNC(=O)[C@H](Cc1c[nH]c2ccccc12)NC(=O)[C@@H](CC(=O)NO)CC(C)C` has a GI50 [1] of over 25 µM, a TGI [1] of over 25 µM and a GI50 [2] of over 25 µM. The TGI [2] was over 25 µM, the GI50 [3] was over 25 µM and the TGI [3] was over 25 µM. It also gave a GI50 [4] of over 25 µM, a TGI [4] of over 25 µM and a GI50 [5] of over 25 µM. The TGI [5] was over 25 µM, the GI50 [6] was over 25 µM and the TGI [6] was over 25 µM. It also gave a GI50 [7] of over 25 µM, a TGI [7] of over 25 µM and a GI50 [8] of over 25 µM. The TGI [8] was over 25 µM, the GI50 [9] was over 25 µM and the TGI [9] was over 25 µM. The GI50 [10] was over 25 µM, the TGI [10] was over 25 µM and the GI50 [11] was over 25 µM. For the same compound, the TGI [11] was over 25 µM, the GI50 [12] was over 25 µM and the TGI [12] was over 25 µM. The GI50 [13] was over 25 µM, the TGI [13] was over 25 µM and the GI50 [14] was over 25 µM. It also gave a TGI [14] of over 25 µM, a GI50 [15] of over 25 µM and a TGI [15] of over 25 µM. For the same compound, the GI50 [16] was over 25 µM, the TGI [16] was over 25 µM and the GI50 [17] was over 25 µM. The TGI [17] was over 25 µM, the GI50 [18] was over 25 µM and the TGI [18] was over 25 µM. It also gave a GI50 [19] of over 25 µM, a TGI [19] of over 25 µM and a GI50 [20] of over 25 µM. It also gave a TGI [20] of over 25 µM, a GI50 [21] of over 25 µM and a TGI [21] of over 25 µM. It also gave a GI50 [22] of over 25 µM, a TGI [22] of over 25 µM and a GI50 [23] of over 25 µM. The TGI [23] was over 25 µM, the GI50 [24] was over 25 µM and the TGI [24] was over 25 µM. The GI50 [25] was over 25 µM, the TGI [25] was over 25 µM and the GI50 [26] was 21.6 µM. It also gave a TGI [26] of over 25 µM, a GI50 [27] of over 25 µM and a TGI [27] of over 25 µM. For the same compound, the GI50 [28] was over 25 µM, the TGI [28] was over 25 µM and the GI50 [29] was over 25 µM. It also gave a TGI [29] of over 25 µM, a GI50 [30] of over 25 µM and a TGI [30] of over 25 µM. It also gave a GI50 [31] of over 25 µM, a TGI [31] of over 25 µM and a GI50 [32] of over 25 µM. The TGI [32] was over 25 µM, the GI50 [33] was over 25 µM and the TGI [33] was over 25 µM. The GI50 [34] was over 25 µM, the TGI [34] was over 25 µM and the GI50 [35] was over 25 µM. It also gave a TGI [35] of over 25 µM, a GI50 [36] of over 25 µM and a TGI [36] of over 25 µM. For the same compound, the GI50 [37] was over 25 µM, the TGI [37] was over 25 µM and the GI50 [38] was over 25 µM. It also gave a TGI [38] of over 25 µM, a GI50 [39] of over 25 µM and a TGI [39] of over 25 µM. It also gave a GI50 [40] of over 25 µM, a TGI [40] of over 25 µM and a GI50 [41] of over 25 µM. It also gave a TGI [41] of over 25 µM, a GI50 [42] of over 25 µM and a TGI [42] of over 25 µM. For the same compound, the GI50 [43] was over 25 µM, the TGI [43] was over 25 µM and the GI50 [44] was over 25 µM. It also gave a TGI [44] of over 25 µM, a GI50 [45] of over 25 µM and a TGI [45] of over 25 µM. For the same compound, the GI50 [46] was over 25 µM, the TGI [46] was over 25 µM and the GI50 [47] was over 25 µM. The TGI [47] was over 25 µM, the GI50 [48] was over 25 µM and the TGI [48] was over 25 µM. It also gave a GI50 [49] of over 25 µM, a TGI [49] of over 25 µM and a GI50 [50] of over 25 µM. For the same compound, the TGI [50] was over 25 µM, the GI50 [51] was over 25 µM and the TGI [51] was over 25 µM. The GI50 [52] was over 25 µM and the TGI [52] was over 25 µM.
